Measurements taken from ChEMBL document CHEMBL1201862, “PubChem BioAssay data set” (2004).
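Briefly, cells in 96-well plates were exposed to five compound concentrations for 48 h, and endpoints were estimated by linear interpolation. GI50: concentration for 50% inhibition of growth.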 Active and inactive are the calls of the source. Cut-off read from the data, not from the text of the source: active = GI50 up to about 1.1 µM and inactive = higher.

How the values were obtained:
Assay in all cases: inhibition of tumour cell growth, NCI panel, 48 h
[1] = test system: 786-0
[2] = test system: A498
[3] = test system: A549
[4] = test system: ACHN
[5] = test system: BT-549
[6] = test system: CAKI-1
[7] = test system: CCRF-CEM
[8] = test system: COLO 205
[9] = test system: DU-145
[10] = test system: EKVX
[11] = test system: HCC 2998
[12] = test system: HCT-116
[13] = test system: HCT-15
[14] = test system: HL-60
[15] = test system: HOP-62
[16] = test system: HOP-92
[17] = test system: HT-29
[18] = test system: Hs-578T
[19] = test system: IGROV-1
[20] = test system: K562
[21] = test system: KM12
[22] = test system: LOX IMVI
[23] = test system: M14
[24] = test system: MCF7
[25] = test system: MDA-MB-231
[26] = test system: MDA-MB-435
[27] = test system: MDA-N
[28] = test system: MOLT-4
[29] = test system: Malme-3M
[30] = test system: NCI-H226
[31] = test system: NCI-H23
[32] = test system: NCI-H460
[33] = test system: NCI-H522
[34] = test system: NCI/ADR-RES
[35] = test system: OVCAR-3
[36] = test system: OVCAR-4
[37] = test system: OVCAR-5
[38] = test system: OVCAR-8
[39] = test system: PC-3
[40] = test system: RPMI-8226
[41] = test system: RXF 393
[42] = test system: SF-268
[43] = test system: SF-295
[44] = test system: SF-539
[45] = test system: SK-MEL-28
[46] = test system: SK-MEL-2
[47] = test system: SK-MEL-5
[48] = test system: SK-OV-3
[49] = test system: SN12C
[50] = test system: SNB-19
[51] = test system: SNB-75
[52] = test system: SR
[53] = test system: SW-620
[54] = test system: T47D
[55] = test system: TK-10
[56] = test system: U-251
[57] = test system: UACC-257
[58] = test system: UACC-62
[59] = test system: UO-31

With `CCOC(=O)c1c(SCCN(CC)CC)n(-c2ccccc2)c(=S)n(-c2ccccc2)c1=O` as the compound, how does the GI50 [1] read?
Its GI50 is 1770 nM (inactive).

And the GI50 [2]?
The GI50 was 15200 nM (inactive).

And the GI50 [3]?
Its GI50 is 3160 nM (inactive).

And the GI50 [4]?
The GI50 was 1730 nM (inactive).

And the GI50 [5]?
The GI50 was 7130 nM (inactive).

What about the GI50 [6] of the same compound?
Its GI50 is 2160 nM (inactive).

And the GI50 [7]?
The GI50 was 1260 nM (inactive).

And the GI50 [8]?
Its GI50 is 2500 nM (inactive).

And the GI50 [9]?
Its GI50 is 1680 nM (inactive).

And the GI50 [10]?
Its GI50 is 9590 nM (inactive).

And the GI50 [11]?
The GI50 was 1730 nM (inactive).

What about the GI50 [12] of the same compound?
The GI50 was 3870 nM (inactive).

And the GI50 [13]?
The GI50 was 2540 nM.

And the GI50 [14]?
The GI50 was 1730 nM (inactive).

What about the GI50 [15] of the same compound?
The GI50 was 17300 nM (inactive).

And the GI50 [16]?
Its GI50 is 1920 nM (inactive).

And the GI50 [17]?
Its GI50 is 4470 nM (inactive).

What about the GI50 [18] of the same compound?
The GI50 was 3320 nM (inactive).

What about the GI50 [19] of the same compound?
The GI50 was 5160 nM (inactive).

And the GI50 [20]?
Its GI50 is 1720 nM (inactive).

What about the GI50 [21] of the same compound?
The GI50 was 14300 nM (inactive).

And the GI50 [22]?
Its GI50 is 1950 nM (inactive).

What about the GI50 [23] of the same compound?
Its GI50 is 1740 nM (inactive).

And the GI50 [24]?
Its GI50 is 1270 nM (inactive).

And the GI50 [25]?
The GI50 was 3330 nM (inactive).

What about the GI50 [26] of the same compound?
Its GI50 is 2230 nM (inactive).

And the GI50 [27]?
Its GI50 is 2700 nM (inactive).

And the GI50 [28]?
Its GI50 is 1090 nM (active).

What about the GI50 [29] of the same compound?
Its GI50 is 1420 nM (inactive).

And the GI50 [30]?
The GI50 was 21500 nM (inactive).

And the GI50 [31]?
Its GI50 is 15900 nM (inactive).

What about the GI50 [32] of the same compound?
Its GI50 is 6930 nM (inactive).

What about the GI50 [33] of the same compound?
The GI50 was 1560 nM (inactive).

What about the GI50 [34] of the same compound?
Its GI50 is 32100 nM (inactive).

And the GI50 [35]?
Its GI50 is 1840 nM (inactive).

And the GI50 [36]?
Its GI50 is 9660 nM (inactive).

What about the GI50 [37] of the same compound?
Its GI50 is 30300 nM (inactive).

And the GI50 [38]?
Its GI50 is 2640 nM (inactive).

And the GI50 [39]?
Its GI50 is 2050 nM (inactive).

And the GI50 [40]?
The GI50 was 635 nM (active).

And the GI50 [41]?
The GI50 was 1720 nM (inactive).

What about the GI50 [42] of the same compound?
The GI50 was 4560 nM (inactive).

And the GI50 [43]?
Its GI50 is 34200 nM (inactive).

What about the GI50 [44] of the same compound?
The GI50 was 4480 nM (inactive).

What about the GI50 [45] of the same compound?
The GI50 was 2620 nM (inactive).

What about the GI50 [46] of the same compound?
The GI50 was 13400 nM (inactive).

What about the GI50 [47] of the same compound?
The GI50 was 2610 nM (inactive).

What about the GI50 [48] of the same compound?
Its GI50 is 19300 nM (inactive).

And the GI50 [49]?
The GI50 was 1910 nM (inactive).

What about the GI50 [50] of the same compound?
Its GI50 is 17900 nM (inactive).

And the GI50 [51]?
Its GI50 is 8810 nM (inactive).

And the GI50 [52]?
Its GI50 is 714 nM (active).

And the GI50 [53]?
Its GI50 is 2740 nM (inactive).

What about the GI50 [54] of the same compound?
The GI50 was 2550 nM (inactive).

And the GI50 [55]?
Its GI50 is 1810 nM (inactive).

What about the GI50 [56] of the same compound?
The GI50 was 15600 nM (inactive).

What about the GI50 [57] of the same compound?
The GI50 was 2280 nM (inactive).

What about the GI50 [58] of the same compound?
The GI50 was 4610 nM (inactive).

What about the GI50 [59] of the same compound?
The GI50 was 1720 nM (inactive).

Which GI50 [1] does the source give for `CC(=O)Nc1ccc2c3c(cc(O)c2c1)N(C(=O)CCCCCC(=O)Nc1ccc2c4c(cc(O)c2c1)N(C(=O)OC(C)(C)C)CC4CCl)CC3CCl` (stereo not drawn) here?
The GI50 was 2040 nM (inactive).

What about the GI50 [2] of the same compound?
The GI50 was 1640 nM (inactive).

And the GI50 [3]?
The GI50 was 12300 nM (inactive).

What about the GI50 [4] of the same compound?
The GI50 was 3540 nM (inactive).

What about the GI50 [5] of the same compound?
Its GI50 is 1870 nM (inactive).

And the GI50 [6]?
Its GI50 is > 100000 nM (inactive).

What about the GI50 [7] of the same compound?
Its GI50 is 99.5 nM (active).

What about the GI50 [8] of the same compound?
The GI50 was 1990 nM (inactive).

And the GI50 [9]?
The GI50 was 463 nM (active).

What about the GI50 [10] of the same compound?
Its GI50 is 41900 nM (inactive).

What about the GI50 [11] of the same compound?
The GI50 was 1420 nM (inactive).

And the GI50 [12]?
Its GI50 is 1670 nM (inactive).

What about the GI50 [13] of the same compound?
The GI50 was > 100000 nM.

What about the GI50 [14] of the same compound?
Its GI50 is 355 nM (active).

What about the GI50 [15] of the same compound?
Its GI50 is 1810 nM (inactive).

What about the GI50 [16] of the same compound?
Its GI50 is 3590 nM (inactive).

And the GI50 [17]?
The GI50 was 3150 nM (inactive).

What about the GI50 [18] of the same compound?
Its GI50 is 3940 nM (inactive).

And the GI50 [19]?
Its GI50 is 8050 nM (inactive).

What about the GI50 [20] of the same compound?
Its GI50 is 3300 nM (inactive).

What about the GI50 [21] of the same compound?
The GI50 was 2730 nM (inactive).

What about the GI50 [22] of the same compound?
The GI50 was 1920 nM (inactive).

What about the GI50 [23] of the same compound?
The GI50 was 4090 nM (inactive).

And the GI50 [24]?
The GI50 was 233 nM (active).

What about the GI50 [25] of the same compound?
The GI50 was 4330 nM (inactive).

What about the GI50 [26] of the same compound?
The GI50 was 1630 nM (inactive).

What about the GI50 [27] of the same compound?
Its GI50 is 1530 nM (inactive).

What about the GI50 [28] of the same compound?
Its GI50 is 58.5 nM (active).

What about the GI50 [29] of the same compound?
Its GI50 is 2170 nM (inactive).

What about the GI50 [30] of the same compound?
The GI50 was 1550 nM (inactive).

What about the GI50 [31] of the same compound?
The GI50 was 800 nM (active).

What about the GI50 [32] of the same compound?
The GI50 was 625 nM (active).

And the GI50 [33]?
The GI50 was 1050 nM (active).

And the GI50 [34]?
Its GI50 is > 100000 nM (inactive).

And the GI50 [35]?
The GI50 was 1570 nM (inactive).

What about the GI50 [36] of the same compound?
The GI50 was 5360 nM (inactive).

What about the GI50 [37] of the same compound?
The GI50 was 10000 nM (inactive).

And the GI50 [38]?
Its GI50 is 2350 nM (inactive).

What about the GI50 [39] of the same compound?
The GI50 was 2990 nM (inactive).

What about the GI50 [40] of the same compound?
Its GI50 is 3370 nM (inactive).

What about the GI50 [41] of the same compound?
The GI50 was 1240 nM (inactive).

And the GI50 [42]?
Its GI50 is 646 nM (active).

What about the GI50 [43] of the same compound?
Its GI50 is 5730 nM (inactive).

What about the GI50 [44] of the same compound?
Its GI50 is 2370 nM (inactive).

And the GI50 [45]?
The GI50 was 6280 nM (inactive).

And the GI50 [46]?
The GI50 was 1760 nM (inactive).

What about the GI50 [47] of the same compound?
Its GI50 is 1330 nM (inactive).

And the GI50 [48]?
The GI50 was 3540 nM (inactive).

And the GI50 [49]?
The GI50 was 3450 nM (inactive).

And the GI50 [50]?
Its GI50 is 1600 nM (inactive).

What about the GI50 [51] of the same compound?
The GI50 was 1490 nM (inactive).

What about the GI50 [52] of the same compound?
Its GI50 is 118 nM (active).

What about the GI50 [53] of the same compound?
Its GI50 is 2170 nM (inactive).

What about the GI50 [54] of the same compound?
Its GI50 is 541 nM (active).

What about the GI50 [55] of the same compound?
Its GI50 is 18000 nM (inactive).

What about the GI50 [56] of the same compound?
The GI50 was 740 nM (active).

What about the GI50 [57] of the same compound?
The GI50 was 3370 nM (inactive).

What about the GI50 [58] of the same compound?
The GI50 was 1390 nM (inactive).

What about the GI50 [59] of the same compound?
The GI50 was > 100000 nM (inactive).
